Experimental findings from PubChem BioAssay (NCI) are described below.

Test systems include SK-MEL-2 melanoma; OVCAR-8 ovarian; NCI-H226 lung; OVCAR-5 ovarian; KM12 colon; T-47D breast; CAKI-1 renal; SK-MEL-28 melanoma; K-562 leukemia; HS 578T breast.
Holding throughout (assay): NCI anticancer screen, dose series, 48 h

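Five compound concentrations were applied to cells in 96-well plates for 48 hours; endpoints were derived by simple linear interpolation of the resulting dose-response curve. GI50 marks 50% less growth. TGI marks complete inhibition of growth.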

As to `COc1cc(/C=C/C(=O)c2cccc(-n3cc(-c4ccccc4)[nH]c3=O)c2)ccc1O`, the GI50 was 3.81 µM with SK-MEL-2 melanoma; 3.35 µM in the test on OVCAR-8 ovarian; 6.35 µM in the test on NCI-H226 lung; 6.25 µM in the test on OVCAR-5 ovarian; 2.02 µM in the test with KM12 colon; 2.72 µM in the test with T-47D breast. Also, the GI50 is 4.47 µM in the test with CAKI-1 renal, 0.722 µM in the test on SK-MEL-28 melanoma, 2.23 µM in the test with K-562 leukemia and 3.09 µM with HS 578T breast. In addition, the TGI in the test on SK-MEL-2 melanoma was found to be 15.1 µM; in the test on OVCAR-8 ovarian it was 17.8 µM; in the test on NCI-H226 lung, 17.8 µM; in the test on OVCAR-5 ovarian, 14.1 µM; in the test with KM12 colon it was 4.68 µM; in the test with T-47D breast, 8.59 µM. Moreover, the TGI with CAKI-1 renal came out at 15.2 µM; with SK-MEL-28 melanoma, 3.07 µM; with K-562 leukemia, 9.29 µM; in the test with HS 578T breast, 18.6 µM.

`Nc1ncnc2c1ncn2C1OC(F)(COS(N)(=O)=O)C(O)C1O` (stereo not given): the GI50 with SK-MEL-2 melanoma, in the test with OVCAR-8 ovarian, in the test with NCI-H226 lung, with OVCAR-5 ovarian, in the test with KM12 colon and in the test with T-47D breast was more than 100 µM throughout. For the same compound, the GI50 with CAKI-1 renal, with SK-MEL-28 melanoma, in the test with K-562 leukemia and with HS 578T breast was more than 100 µM each time. The TGI in the test with SK-MEL-2 melanoma, with OVCAR-8 ovarian, with NCI-H226 lung, with OVCAR-5 ovarian, in the test with KM12 colon and in the test with T-47D breast was more than 100 µM throughout. The TGI in the test on CAKI-1 renal, with SK-MEL-28 melanoma, in the test with K-562 leukemia and in the test with HS 578T breast was more than 100 µM each time.
